Entries after “also recorded” stand apart in the source; their conditions may differ.
Tests used:
[1] = test system: endothelial IK/SK channels; test: Whole-cell patch-clamp in freshly isolated ECs from small PAs; format: cell-based, mouse; conditions: NS309 1 μmol/L; 250-ms voltage ramp −100 to +50 mV; ECs from N and Su+CH mice
Procedure: ECs were freshly isolated from PAs following a previously established protocol (21, 24). […] Worthington Biochemical Corporation; Lakewood; NJ; USA) for 30 minutes at 37° C. With this protocol for endothelial cell isolation, more than 95% of cells are CD31-positive. Whole-cell currents were measured at room temperature using conventional whole-cell patch-clamp electrophysiology. The bath solution consisted of 10 mmol/L HEPES, 134 mmol/L NaCl, 6 mmol/L KCl, 2 mmol/L CaCl2), 1 mmol/L MgCl2 hexahydrate, and 7 mmol/L dextrose (adjusted to pH 7.4 with NaOH). […] The pipette solution for conventional patch clamp consisted of 10 mmol/L HEPES, 123.2 mmol/L KCl, 10 mmol/L NaCl, 5.5 mmol/L MgCl2, 0.2 mmol/L CaCl2) and 5 mmol/L HEDTA (adjusted to pH 7.2 with 16.8 mm KOH) and contained 3 μm free-Ca^2+ and 1 mmol/L free-Mg^2+, as calculated using the Max-Chelator program (Chris Patton; Stanford University; Stanford; CA; USA). […] Data were acquired using a Multiclamp 700B amplifier connected to a Digidata 1550B system and analyzed using Clampfit 11.1 software (Molecular Devices, San Jose, CA, USA). […] IK/SK channel currents induced by the IK/SK channel agonist NS309 (1 μmol/L) were recorded following application of a 250-ms voltage ramp from -100 mV to +50 mV. […]

fourth-order PAs = test: Pressure myography of mouse fourth-order PAs
Excerpt: Mouse fourth-order PAs (˜50 μm) were cannulated on glass micropipettes in a pressure myography chamber (The Instrumentation and Model Facility; University of Vermont; Burlington; VT; USA) and pressurized to a physiological pressure of 15 mm Hg (24). Briefly, freshly dissected lungs were placed in ice cold HEPES buffer in a dissection plate. The left lung was stretched and pinned down, with ventral side facing up. First, pulmonary veins, and then the airway were cut open to gain access to the pulmonary arteries underneath. Once PAs were visible, they were gently separated from surrounding tissue (25). Arteries were superfused with bicarbonate-physiological salt solution (PSS; 119 mmol/L NaCl; 4.7 mmol/L KCl; 1.2 mmol/L KH2PO4; 1.2 mmol/L MgCl2 hexahydrate; 2.5 mmol/L CaCl2) dihydrate; 7 mmol/L dextrose; and 24 mmol/L NaHCO3) at 37° ° C. and bubbled with 20% O2/5% CO2 to maintain the pH at 7.4. Approximately 20% PAs from normal mice develop myogenic tone, whereas ˜65% PA from Su+CH mice show myogenic tone at 15 mm Hg. Due to the relatively small percentage of PAs from normal mice showing myogenic tone, we pre-constricted all PAs with 30 nmol/L U46619 (a thromboxane A2 receptor agonist). […] U46619 was added to the chamber immediately, before the arteries could develop myogenic tone. Before measuring vascular reactivity, arteries were treated with NS309 (1 μmol/L), a direct activator of endothelial IK/SK channels, to assess endothelial health. […] Changes in arterial diameter were recorded at a 60-ms frame rate using a charge-coupled device camera and edge-detection software (IonOptix LLC; Westwood; MA; USA) (11, 26). At the end of each experiment, Ca^2+-free PSS (119 mmol/L NaCl; 4.7 mmol/L KCl; 1.2 mmol/L KH2PO4; 1.2 mmol/L MgCl2 hexahydrate; 7 mmol/L dextrose; 24 mmol/L NaHCO3; and 5 mmol/L EGTA) was applied to assess the maximum passive diameter. Percent constriction was calculated by:
[formula] • where Diameterbefore is the diameter of the artery before treatment and Diameterafter is the diameter after treatment. Percent dilation was calculated by:
[formula] • where Diameterbasal is the stable diameter before drug treatment, Diameterdilated is the diameter after drug treatment, and Diameterca-free is the maximum passive diameter.

[2] = references (37, 38); cited from earlier work
large PAs = large PAs ~560 μm internal diameter; mice exposed to chronic hypoxia; reference (50); cited from earlier work
IK channels = IK channels (Homo sapiens, UniProt O15554+P0DP23); conditions: reference (38); cited from earlier work
isolated perfused lungs = test: PAP in isolated perfused lungs (ex vivo lung perfusion); design: species or system mouse; conditions: NS309 1 μmol/L
Procedure: PAP was evaluated using an IPL-1 ex vivo murine lung perfusion system (Harvard Apparatus; Holliston; MA; USA) as previously described (22, 23). Briefly, mice were anesthetized with isoflurane, after which a tracheostomy was performed, and animals were ventilated with room air at 150 strokes/min and a stroke volume of […]. […] The main pulmonary artery was cannulated through the right ventricle, and the left ventricle was tube-vented through a small incision at the apex of the heart. The lungs were then perfused at a constant flow rate of 0.5 mL min 1 with Krebs-Henseleit buffer (11 mmol/L glucose; 1.2 mmol/L MgSO4; 1.2 mmol/L KH2PO4; 4.7 mmol/L KCl; 118 mmol/L NaCl; 1.25 mmol/L CaCl2), and 25 mmol/L […]). The perfusate buffer and isolated lungs were maintained at 37° C. using a circulating water bath. Once properly perfused and ventilated, the isolated lungs were maintained on the system for a 10-minute equilibration period, after which hemodynamic and pulmonary parameters were recorded using the PULMODYN data acquisition system (Hugo Sachs Elektronik; Breisgau; Germany).

For O=C1Nc2c(ccc(Cl)c2Cl)C1=NO [NS309, 6,7-dichloro-1H-indole-2,3-dione 3-oxime], the “Outward currents at 0 mV in ECs, N vs Su+CH” value [1] was “not different between ECs from N and Su+CH groups”, the “Dilation of PAs that developed myogenic tone, N vs Su+CH” value (fourth-order PAs; NS309 1 μmol/L) was “not different between N and Su+CH groups” and the “Dilation of small PAs, N vs Su+CH” value (fourth-order PAs; NS309 0.3-1 μmol/L, PAs at 15 mm Hg pre-constricted with U46619 30 nmol/L) was “not different between N and Su+CH mice; also recorded: not different between PAs from control and CH+Su mice”. The Half-life in vivo [2] was “short half-life”, the “Increase of dilation of large PAs in chronic hypoxia” value (large PAs) was roughly 3 fold and the EC50 (IK channels) was roughly 20 nM. For the same compound, the “PAP in isolated perfused lungs, N mice” value (isolated perfused lungs; N mice) was “not in N mice” and the “PAP in isolated perfused lungs, Su+CH mice” value (isolated perfused lungs; Su+CH mice) was “decreased”.
